This is an account of results in patent US4652552A, “Tetrapeptide methyl ketone inhibitors of viral proteases” (priority 1984, dated 1987).

Non-standard residues stand in square brackets, D forms with d. Residues, ends and D or L forms follow the SMILES beside them. ξ: configuration not given here. *: point of attachment. ξL = CC(C)CC(N)C(=O)O; CH2Cl = ClC*

For series [1], the system named is human poliomyelitis virus type 2 or human rhinovirus type 1A. The format is cell-based. On the set-up: key to Protease-Inhibiting Activity of Selected Peptide Chloromethyl Ketones: Activity: -: no activity; +/-: low activity; +: active at 100 μg/mL; ++: active at 50 μg/mL; +++: active at 10 μg/mL; ++++: active at <5 μg/mL.
In series [2] the test system is Poliovirus type 2. It counts as cell-based.
Series [3] has as its system HeLa cells.
The test system of series [4] is rhinovirus type 1A. The format is cell-based.
In series [5] the target is chymotrypsin (Bos taurus, UniProt P00766). Conditions: inhibitor concentration 600 μg/mL; cited from earlier work.
In series [6] the test system is human poliomyelitis virus type 2. It counts as cell-based. The conditions noted are these: test concentration 100 μg/mL.
Series [7] has as its system human rhinovirus type 1A. The format is cell-based. Conditions: test concentration 100 μg/mL.
For series [8], the target named is T1, subtilisin BPN' (Bacillus amyloliquefaciens, UniProt P00782).
T1 sequence (P00782 108-382): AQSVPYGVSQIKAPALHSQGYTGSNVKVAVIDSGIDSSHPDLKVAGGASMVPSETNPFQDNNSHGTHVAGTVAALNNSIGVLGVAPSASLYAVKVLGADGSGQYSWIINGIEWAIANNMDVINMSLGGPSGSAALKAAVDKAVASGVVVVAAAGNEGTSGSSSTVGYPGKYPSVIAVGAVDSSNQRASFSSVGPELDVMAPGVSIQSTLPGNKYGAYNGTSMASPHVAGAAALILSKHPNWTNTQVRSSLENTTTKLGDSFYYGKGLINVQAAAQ
The conditions noted are these: cited from earlier work.

Take `CC(=O)[C@H](CC(C)C)NC(=O)[C@H](C)NC(=O)CNC(=O)[C@H](Cc1ccccc1)NC(=O)OC(C)(C)C` [Boc-Phe-Gly-Ala-LeuCH3, reference compound]: the “activity in the viral cleavage assay” value in series [1] is on record as “failed to show activity”.

In the case of `CC(=O)[C@H](CC(C)C)NC(=O)[C@H](C)NC(=O)CNC(=O)[C@H](Cc1ccccc1)NC(=O)OCc1ccccc1` [Z-Phe-Gly-Ala-LeuCH3], the “plaque reduction compared to control plates” value in series [2] and in series [4] was greater than 90% throughout. For the same compound, the cytotoxicity entry in series [3] is “No cytotoxicity was observed”. Further, the “Protease-Inhibiting Activity of Selected Peptide Chloromethyl Ketones: Activity” value in series [1] is “+++ (key: -: no activity; +/-: low activity; +: active at 100 μg/mL; ++: active at 50 μg/mL; +++: active at 10 μg/mL; ++++: active at <5 μg/mL)”.

For `COC(=O)CCC(=O)N[C@@H](Cc1ccccc1)C(=O)NCC(=O)N[C@@H](CC(C)C)C(=O)N[C@@H](CC(C)C)C(C)=O` [MeOSuc-Phe-Gly-Leu-LeuCH3], in series [1], the “Protease-Inhibiting Activity of Selected Peptide Chloromethyl Ketones: Activity” value is reported as “+/-”.

Consider `CC(=O)N[C@@H](CC(C)C)C(=O)N[C@@H](CC(C)C)C(=O)N[C@@H](Cc1ccccc1)C(C)=O` [Ac-Leu-Leu-PheCH3], for which the inhibition of chymotrypsin entry in series [5] is “no inhibition was observed”.

Turning to `COC(=O)CCC(=O)N[C@@H](Cc1ccccc1)C(=O)NCC(=O)N[C@@H](C)C(=O)N[C@@H](CC(C)C)C(C)=O` [MeOSuc-Phe-Gly-Ala-LeuCH3, MeOSuc--Phe--Gly--Ala--LeuCH3], the “activity in the viral cleavage assay” value in series [6] and in series [7] was “demonstrated activity” in each case. In series [1], the “Protease-Inhibiting Activity of Selected Peptide Chloromethyl Ketones: Activity” value was “+++ (key: -: no activity; +/-: low activity; +: active at 100 μg/mL; ++: active at 50 μg/mL; +++: active at 10 μg/mL; ++++: active at <5 μg/mL)”.

As to `CC(=O)[C@H](CC(C)C)NC(=O)[C@H](CC(C)C)NC(=O)CNC(=O)[C@H](Cc1ccccc1)NC(=O)OCc1ccccc1` [Z-Phe-Gly-Leu-LeuCH3, N-carbobenzoxy-L-phenylalanyl-L-glycyl-L-leucyl-L-leucyl methyl ketone], the “Protease-Inhibiting Activity of Selected Peptide Chloromethyl Ketones: Activity” value in series [1] was “+++ (key: -: no activity; +/-: low activity; +: active at 100 μg/mL; ++: active at 50 μg/mL; +++: active at 10 μg/mL; ++++: active at <5 μg/mL)”.

For the compound `CC(=O)N[C@@H](Cc1ccccc1)C(=O)NCC(=O)N[C@@H](C)C(=O)NC(CC(C)C)C(=O)CCl` (stereo partly drawn) [Peptide Analog 3, acetyl-L-phenylalanyl-L-glycyl-L-alanyl-L-leucyl chloromethyl ketone] (Ac-FGA[ξL]-CH2Cl), in series [8], the “inhibition of subtilisin BPN' (rate, among the peptide chloromethyl ketones tested)” value was “fastest inhibitor”.
